{"source": "patent US20200245660A1", "about": "“AGROCHEMICAL-FREE SIRAITIA GROSVENORII EXTRACT, AND METHOD FOR PREPARING SAME” (priority 2015, published 2020)", "key": {"[1]": {"details": "cited from earlier work"}, "physchem": {"test": "physchem", "format": "physicochemical", "details": "LogPow", "procedure": "These agrochemicals are each a compound having a distribution coefficient (LogPow) of 1.71 or more. Herein, the distribution coefficient of a target compound specifically means the 1-octanol/water distribution coefficient (LogPowow) thereof. When the target compound is added into two solvent phases (of 20 to 25° C.) of 1-octanol and water to make the two phases into an equilibrium state, the distribution coefficient more specifically means the concentration ratio of the compound between the two phases (1-octanol/water). The distribution coefficient may be gained by a flask method or an HPLC method. The distribution coefficient is a physicochemical index representing the hydrophobicity (solubility into lipid) of the compound. As the compound is higher in distribution coefficient, the compound is higher in hydrophobicity. It is known that as the compound is higher in hydrophobicity, the compound is higher in storability in a living body and is also stronger in toxicity. Thus, it can be stated that as the compound is higher in distribution coefficient, the compound is an agrochemical stronger in toxicity.\nFor reference, out of the six, about dimethomorph, tebuconazole, difenoconazole, metalaxyl, and metalaxyl M, the respective LogPow values are shown below. […]"}}, "note": "Read-outs that look alike come from different tables or passages of the source.", "data": [{"smiles": "CC1COC(Cn2cncn2)(c2ccc(Oc3ccc(Cl)cc3)cc2Cl)O1", "note": "(centres unmarked) [Difenoconazole, difenoconazole]", "values": [{"measurement": "LogPow", "setting": "[1]; 25 °C, Flask method", "value": 4.4}]}, {"smiles": "COCC(=O)N(c1c(C)cccc1C)[C@H](C)C(=O)OC", "note": "[Metalaxyl M, metalaxyl M]", "values": [{"measurement": "LogPow", "setting": "[1]; 25 °C, HPLC method", "value": 1.71}]}, {"smiles": "COCC(=O)N(c1c(C)cccc1C)C(C)C(=O)OC", "note": "(centres unmarked) [Metalaxyl, metalaxyl]", "values": [{"measurement": "LogPow", "setting": "[1]; 25 °C, Flask method", "value": 1.75}]}, {"smiles": "CC(C)(C)C(O)(CCc1ccc(Cl)cc1)Cn1cncn1", "note": "(centres unmarked) [Tebuconazole, tebuconazole]", "values": [{"measurement": "LogPow", "setting": "[1]; 20 °C, Flask method", "value": 3.7}]}, {"smiles": "CC(C)(C)C(O)C(Oc1ccc(Cl)cc1)n1cncn1", "note": "(centres unmarked) [Triadimenol, triadimenol]", "values": [{"measurement": "chromatographic logP", "setting": "physchem", "value": "~2.96"}]}]}
